Tests used:
[1] = test system: PPARγ2-mice and LacZ-mice; experiment: Bupranolol loading test (serum FFA); type: in vivo; settings: fed state, 10 mg/kg intraperitoneal
Experimental: (A) Plasma lipid parameters (left: total cholesterol, middle: triglyceride (TG), right: free fatty acids (FFA)) in LacZ-mice (white bars) and PPARγ2-mice (black bars) on day 7 after adenoviral administration were measured in the 10 hour fasted state. (B-C) Relative amounts of UCP1 (left), PGC-1α (middle) and HSL (right) in brown adipose tissue (B) and epididymal fat tissue (C) from ad libitum-fed LacZ-mice (white bars) and PPARγ2-mice (black bars) on day 7 after adenoviral administration. (D) A pan-β adrenergic blocker, bupranolol, was injected intraperitoneally into LacZ-mice (open circles) and PPARγ2-mice (closed circles) in the fed state, on day 5 after adenoviral administration, followed by measurement of serum FFA levels. Data were expressed as percentages of serum FFA levels immediately before intraperitoneal bupranolol loading (10 mg/kg of body weight). Date are presented as mean±SD. **P<0.01 and *P<0.05, compared to control mice, by unpaired t test.
Glucose tolerance tests were performed on mice fasted for 10 hours as previously described (Y. Ishigaki et al., Diabetes 54, 322 (2005)). Insulin tolerance tests were performed on ad libitum fed mice. […] Serum FFA levels were measured immediately before and at 30 and 60 min after injection of inraperitoneal bupranolol (10 mg/kg of body weight, Kaken Pharmaceutical Co., Ltd. Tokyo, Japan).

[2] = test system: Male SD rats with high fat diet-induced obesity; experiment: Perivagal capsaicin or vehicle 7 days prior to LacZ or PPARγ2 adenovirus; type: in vivo; settings: perivagal capsaicin treatment
Experimental: Table 1. Afferent vagal activation from the liver is involved in remote effects of hepatic PPARγ2 expression. (Upper Column) Mice were subjected to hepatic vagotomy or sham operation 7 days prior to administration of LacZ or PPARγ2 adenovirus. Resting oxygen consumption (VO2) was measured on day 3 after adenoviral injection. Mice were sacrificed after a 10 hour fast on day 7 after adenoviral injection. (Lower Column) Male SD rats with high fat diet-induced obesity were subjected to application of capsaicin or vehicle to the vagal hepatic branch 7 days prior to administration of LacZ or PPARγ2 adenovirus. Seven days after adenoviral administration, epididymal fat weights were determined. P values: compared to LacZ-mice, by unpaired t test. n.s.: not significant.
Hepatic vagotomy involves dissection of both afferent and efferent vagal branches innervating the liver. To determine whether the remote effects of hepatic PPARγ2 expression are mediated by the afferent vagus, we applied a specific afferent neurotoxin, capsaicin, to the hepatic branch of the vagus of diet-induced obese male SD rats. Seven days after perivagal application of capsaicin or vehicle, we administered recombinant adenovirus encoding LacZ or PPARγ2. […] These observations indicate selective de-afferentation of the hepatic branch of the vagus. […]

[3] = test system: hepatic branch of the vagus; experiment: Perivagal capsaicin: vagal nerve immunohistochemistry and transmission electron microscopy; type: in vivo, rats; settings: 7 days after perivagal application
Experimental: SD rats were treated with perivagal application of vehicle or capsaicin, 7 days prior to removal of the hepatic vagal nerves from vehicle-treated rats (veh) and capsaicin-treated rats (cap), and the esophgeal branch of the posterior vagal trunk from capsaicin-treated rats (eso). (A) Immunohistochemistry of the vagal nerves with anti-calcitonin gene-related peptide (CGRP) and anti-S100 antibodies. Magnification: ×400. The graphs show immunohistological staining intensities and the data are expressed as percentages of the intensities in vehicle-treated vagal nerve. (B) Transmission electron microscopy of the vagal nerves. While myelinated fibers are intact (arrows), unmyelinated fibers have been selectively degraded in perivagal capsaicin-treated nerves (arrowheads). Representative images from two rats of each group are shown.
After 4 weeks of a high-fat diet starting at 5 weeks of age, male SD rats were subjected to selective hepatic vagal afferent blockade. The hepatic branch of this vagal trunk was exposed as described above, then loosely tied with a cotton string immersed with or without capsaicin (Sigma Chemical Co, St Louis, Mo., USA) dissolved in olive oil (5% wt/vol). The cotton string was removed 30 min later and the abdominal incision was closed. Seven days after perivagal application of capsaicin or vehicle, recombinant adenovirus encoding LacZ or PPARγ2, at a dose of 6.5×10^8 plaque forming units (PFU), was injected via the tail vein.
Livers, WAT and BAT were removed and fixed with 10% formalin and embedded in paraffin. Tissue sections were stained with hematoxylin eosin. Total adipocyte areas were traced manually. Brown and white adipocyte diameters were measured in 150 or more cells per mouse in each group. For vagal nerve immunohistochemistry, SD rats were anesthetized with pentobarbiturate (60 mg/kg), and then perfused transcardially with saline and sequentially with 4% paraformaldehyde in 0.2 M phosphate buffer (PB; pH 7.4). […] The intensities of bands were quantified with the NIH image 1.62 program. […]

SMILES	serum FFA ([1]; LacZ-mice)	serum FFA ([1]; PPARγ2-mice)	hepatic PPARγ2 expression-induced decrease in WAT weight [2]	unmyelinated fibers in the vagal hepatic branch (electron microscopy) [3]	Expression of calcitonin gene-related peptide in vagal nerve ([3]; versus vehicle)	immunoreactivity for S100 proteins ([3]; versus vehicle)
Cc1ccc(Cl)c(OCC(O)CNC(C)(C)C)c1 (stereo not drawn) [bupranolol]	no effect	decreased				
COc1cc(CNC(=O)CCCC/C=C/C(C)C)ccc1O [capsaicin]			completely blocked	selective degradation	markedly decreased	similar

Reference: patent publication US7815895B2, “Method for activating efferent sympathetic nerves innervating adipose tissues to improve obesity and symptoms associated therewith” (priority 2007, dated 2010)
